From US20190255144A1, “SPECIFIC OLIGOPEPTIDES AS ANTI-ANGIOGENIC DRUGS” (NEURONAX, priority 2014, published 2019)

What was measured:
[1] = tested on: genes in experimental tumors obtained from the CAM; assay: Quantitative analysis of the mRNA in experimental tumors obtained from CAM; format: in vivo, chicken; conditions: for Mean RQ ANGPT1 / Mean RQ ANGPT2 / Mean RQ CD36 / Mean RQ FGF2 / Mean RQ ITGB1 / Mean RQ KDR / Mean RQ PDGFB / Mean RQ PDGFRB / Mean RQ PLAU / Mean RQ TEK / Mean RQ TIE-1 / Mean RQ TIMP1 / Mean RQ TIMP4 / Mean RQ VEGFA: CAM tumors, relative expression, control = 1, triplicate; for Increase of expression of genes coding for the receptors (ITGB1, PDGFRβ, KDR, TIE-1, TIE-2, CD36) in relation to the control: experimental tumors obtained from the CAM
Excerpt: These receptors belong to the chicken species and are therefore found in the host vessels. […] Furthermore, the overexpression of ITGB1 at the same time as that of CD36 differentiates the peptide according to the invention (NX) from the TSP-1 (TSP).

[2] = tested on: secretions of VEGFA via the U87-MG; assay: ELISA metering of VEGF in the supernatant of U87-MG; format: cell-based; conditions: for VEGF ELISA reading, Val1 / VEGF ELISA reading, Val2 / VEGF Mean / VEGF pg/mL1 / VEGF pg/mL2 / VEGF ELISA reading, Mean: supernatant of U87-MG (SN U87) after treatment; for VEGF ELISA reading, Mean: mean of Val1 and Val2
Excerpt: (§1) FIGS. 2A to 2C represent analysis results of soluble factors that occur in angiogenesis: • Supernatants of U87-MG cells were studied by proteome array (FIGS. 2A and 2B) for the research of proteins involved in angiogenesis, in the presence of sterile water, TSP-1 and the oligopeptide according to the invention. The secretions of VEGFA via the U87-MG in the medium after treatments with sterile water, TSP-1 and the oligopeptide according to the invention, were metered by ELISA from supernatants (FIG. 2C).

HBMEC cells = assay: ELISA Cell Death test for induction of the apoptosis on the HBMEC cells; format: cell-based, human; conditions: basal medium
Protocol: The apoptosis process is accompanied by the fragmentation of DNA and thus generates soluble nucleosomes (cytoplasmic histones associated with fragmented DNA), which can be metered by an immunoenzymatic method, ELISA Cell Death Plus (Enzyme-Linked ImmunoSorbent Assay) Kit (Roche Molecular Diagnostics, France) according to the recommendations of the supplier. The HBMEC cells were inoculated in a 24-well plate at the density of 5.10^3 cells/wells and allowed to stand for 24 hours. The cells are cultivated in a basal medium, i.e., in the absence of growth factors, which is changed before they are exposed to various treatments for 24 hours. They are then recovered and then centrifuged with 200 g for 5 minutes. The cells are then counted, and then adjusted to 3.10^4 cells/mL in PBS. A new centrifuging with 200 g is carried out for 10 minutes. The supernatant is removed, and the cell pellet is taken up in 200 μl of lysis buffer before incubation for 30 minutes at ambient temperature. After a new centrifuging for 10 minutes at 1,400 rpm, 20 μL of supernatant is distributed in wells coated with streptavidin and each condition is carried out in duplicate. 80 μL of the immunoreagent solution is added into each well. […] The reaction is then halted by adding 100 μL of ABTS stop solution, and the results are then analyzed using a 405-nm plaque reader. […]

U87-MG cells = assay: Proteome array of supernatants of U87-MG cells (proteins involved in angiogenesis); format: cell-based; conditions: for DPPIV/CD 26, proteome array / Endoglin/CD105, proteome array / Endothelin-1 (ET-1), proteome array / IGFBP-1, proteome array / IGFBP-3, proteome array / IL-8/CXCL8, proteome array / MCP-1/CCL2, proteome array / NRG1-β1/HRG1-β1, proteome array / Pentraxin 3 (PTX3)/TSG-14, proteome array / Serpin E1/Pal-1, proteome array / TIMP-1, proteome array / TIMP-4, proteome array / TSP-1, proteome array / VEGF, proteome array / uPA, proteome array: supernatant of U87-MG after treatment
Excerpt: as §1

## thrombospondin 1 [TSP, reference compound]
[1]
  Mean RQ ANGPT1: 0.5106
  Mean RQ ANGPT2: 0.2678
  Mean RQ CD36: 2.965
  Mean RQ FGF2: 0.3429
  Mean RQ ITGB1: 1.317
  Mean RQ KDR: 1.557
  Mean RQ PDGFB: 0.6327
  Mean RQ PDGFRB: 2.544
  Mean RQ PLAU: 1.491
  Mean RQ TEK: 1.385
  Mean RQ TIE-1: 1.79
  Mean RQ TIMP1: 0.4492
  Mean RQ TIMP4: 0.6642
  Mean RQ VEGFA: 0.5392
  Increase of expression of genes coding for the receptors (ITGB1, PDGFRβ, KDR, TIE-1, TIE-2, CD36) in relation to the control: on a lesser scale
[2]
  VEGF ELISA reading, Val1: 0.5
  VEGF ELISA reading, Val2: 0.518
  VEGF Mean: 636.2 pg/mL
  VEGF pg/mL1: 621.2 pg/mL
  VEGF pg/mL2: 651.2 pg/mL
  VEGF ELISA reading, Mean: 0.509
HBMEC cells
  Protection of HBMEC from apoptosis (in words): this effect is not observed
U87-MG cells; medium of treated U87-MG cells
  IL-8 secretion (in words): significant increase in IL-8
U87-MG cells
  DPPIV/CD 26, proteome array: 0
  Endoglin/CD105, proteome array: 0.09236
  Endothelin-1 (ET-1), proteome array: 0.0994
  IGFBP-1, proteome array: 1.724
  IGFBP-3, proteome array: 0.5713
  IL-8/CXCL8, proteome array: 2.901
  MCP-1/CCL2, proteome array: 0.1534
  NRG1-β1/HRG1-β1, proteome array: 0
  Pentraxin 3 (PTX3)/TSG-14, proteome array: 0.7118
  Serpin E1/Pal-1, proteome array: 0.855
  TIMP-1, proteome array: 4.593
  TIMP-4, proteome array: 2.041
  TSP-1, proteome array: 0.08481
  VEGF, proteome array: 1.397
  uPA, proteome array: 1.489

## —W—S-G-W—S—S—C—S—R—S—C-G- (WSGWSSCSRSCG; Oligopeptide derived from SCO-Spondin) [NX]
[1]
  Mean RQ ANGPT1: 0.8241
  Mean RQ ANGPT2: 0.6787
  Mean RQ CD36: 3.831
  Mean RQ FGF2: 0.686
  Mean RQ ITGB1: 4.07
  Mean RQ KDR: 4.207
  Mean RQ PDGFB: 2.104
  Mean RQ PDGFRB: 4.366
  Mean RQ PLAU: 1.151
  Mean RQ TEK: 4.539
  Mean RQ TIE-1: 3.961
  Mean RQ TIMP1: 1.237
  Mean RQ TIMP4: 0.6552
  Mean RQ VEGFA: 1.298
  Increase of expression of genes coding for the receptors (ITGB1, PDGFRβ, KDR, TIE-1, TIE-2, CD36) in relation to the control: 4 factor
[2]
  VEGF-A in the supernatant of U87-MG (in words): reduction in VEGF-A
  VEGF ELISA reading, Val1: 0.333
  VEGF ELISA reading, Val2: 0.266
  VEGF Mean: 287 pg/mL
  VEGF pg/mL1: 342.8 pg/mL
  VEGF pg/mL2: 231.2 pg/mL
  VEGF ELISA reading, Mean: 0.2995
HBMEC cells
  Protection of HBMEC from apoptosis (in words): protects the HBMEC human endothelial cells from the apoptosis at a level similar to the VEGF
U87-MG cells; medium of treated U87-MG cells
  MCP-1 secretion (in words): large increase in MCP-1
U87-MG cells
  DPPIV/CD 26, proteome array: 0.08222
  Endoglin/CD105, proteome array: 0
  Endothelin-1 (ET-1), proteome array: 0.09418
  IGFBP-1, proteome array: 1.165
  IGFBP-3, proteome array: 0.1856
  IL-8/CXCL8, proteome array: 1.698
  MCP-1/CCL2, proteome array: 1.861
  NRG1-β1/HRG1-β1, proteome array: 0.1465
  Pentraxin 3 (PTX3)/TSG-14, proteome array: 0.6179
  Serpin E1/Pal-1, proteome array: 0.8632
  TIMP-1, proteome array: 3.888
  TIMP-4, proteome array: 2.15
  TSP-1, proteome array: 0.07983
  VEGF, proteome array: 1.021
  uPA, proteome array: 1.209
